Among the data in patent US8957064B2, “Fused pyrimidines” (Bayer Intellectual Property GmbH, priority 2009, dated 2015) are IC50 values, retold here.

Structures are written as SMILES.

Test [1] concerns the target His-tagged human recombinant kinase full-length Akt1 (Homo sapiens (Human), UniProt P31749). Briefly: Akt1 kinase assay (Akt1 TR-FRET assay, Biological Assay 1.0). Type of test: biochemical. As to conditions: 10 μM ATP, 1 μM biotinylated peptide substrate, 60 min at 22° C. The text has this: Biological Assay 1.0: Akt1 Kinase Assay
Akt1 inhibitory activity of compounds of the present invention may be quantified employing the Akt1 TR-FRET assay as described in the following paragraphs. His-tagged human recombinant kinase full-length Akt1 expressed in insect cells was purchased form Invitrogen (part number PV 3599). As substrate for the kinase reaction the biotinylated peptide biotin-Ahx-KKLNRTLSFAEPG (C-terminus in amide form) was used which can be purchased e.g. from the company Biosynthan GmbH (Berlin-Buch, Germany).
(§1) For the assay 50 nl of a 100 fold concentrated solution of the test compound in DMSO was pipetted into a black low volume 384 well microtiter plate (Greiner Bio-One, Frickenhausen, Germany), 2 μl of a solution of Akt1 in assay buffer [50 mM TRIS/HCl pH 7.5, 5 mM MgCl2, 1 mM dithiothreitol, 0.02% (v/v) Triton X-100 (Sigma)] were added and the mixture was incubated for 15 min at 22° C. to allow prebinding of the test compounds to the enzyme before the start of the kinase reaction. Then the kinase reaction was started by the addition of 3 μl of a solution of adenosine-tri-phosphate (ATP, 16.7 μM=>final conc. in the 5 μl assay volume is 10 μM) and substrate (1.67 μM=>final conc. in the 5 μl assay volume is 1 μM) in assay buffer and the resulting mixture was incubated for a reaction time of 60 min at 22° C. The concentration of Akt1 in the assay was adjusted depending of the activity of the enzyme lot and was chosen appropriate to have the assay in the linear range, typical enzyme concentrations were in the range of about 0.05 ng/μl (final conc. in the 5 μl assay volume).
(§2) The reaction was stopped by the addition of 5 μl of a solution of HTRF detection reagents (200 nM streptavidine-XL665 [Cisbio] and 1.5 nM anti-phosho-Serine antibody [Millipore, cat. #35-001] and 0.75 nM LANCE Eu-W 1024 labeled anti-mouse IgG antibody [Perkin Elmer]) in an aqueous EDTA-solution (100 mM EDTA, 0.1% (w/v) bovine serum albumin in 50 mM HEPES/NaOH pH 7.5).
(§3) The resulting mixture was incubated 1 h at 22° C. to allow the binding of the biotinylated phosphorylated peptide to the streptavidine-XL665 and the antibodies. Subsequently the amount of phosphorylated substrate was evaluated by measurement of the resonance energy transfer from the anti-mouse-IgG-Eu-Chelate to the streptavidine-XL665. Therefore, the fluorescence emissions at 620 nm and 665 nm after excitation at 350 nm was measured in a HTRF reader, e.g. a Rubystar (BMG Labtechnologies, Offenburg, Germany) or a Viewlux (Perkin-Elmer). The ratio of the emissions at 665 nm and at […] was taken as the measure for the amount of phosphorylated substrate. The data were normalised (enzyme reaction without inhibitor=0% inhibition, all other assay components but no enzyme=100% inhibition).
For orientation: In TR-FRET formats the signal depends on donor and acceptor labels being close together.

Test [2] deals with His-tagged human recombinant kinase full-length Akt2 activated by PDK1 (Homo sapiens (Human), UniProt P31751). Briefly: Akt2 kinase assay (Akt2 TR-FRET assay, Biological Assay 2.0). The following applies: 10 μM ATP, 1 μM biotinylated peptide substrate, 60 min at 22° C. It is filed as biochemical.
His-tagged human recombinant kinase full-length Akt2 activated by PDK1, sequence (P31751 whole entry): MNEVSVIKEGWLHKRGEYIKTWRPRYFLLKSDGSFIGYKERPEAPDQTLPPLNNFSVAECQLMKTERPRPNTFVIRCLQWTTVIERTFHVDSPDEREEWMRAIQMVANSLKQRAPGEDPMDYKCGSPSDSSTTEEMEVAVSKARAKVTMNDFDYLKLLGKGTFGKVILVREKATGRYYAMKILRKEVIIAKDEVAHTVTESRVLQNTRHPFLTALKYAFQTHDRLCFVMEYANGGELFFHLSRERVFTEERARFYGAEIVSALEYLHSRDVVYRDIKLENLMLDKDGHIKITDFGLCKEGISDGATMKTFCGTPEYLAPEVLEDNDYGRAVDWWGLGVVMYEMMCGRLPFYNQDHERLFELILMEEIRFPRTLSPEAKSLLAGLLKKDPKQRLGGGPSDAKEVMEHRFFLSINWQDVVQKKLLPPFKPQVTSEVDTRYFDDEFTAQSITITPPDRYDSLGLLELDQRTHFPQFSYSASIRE
Text: Biological Assay 2.0: Akt2 Kinase Assay
Akt2 inhibitory activity of compounds of the present invention was quantified employing the Akt2 TR-FRET assay as described in the following paragraphs.
His-tagged human recombinant kinase full-length Akt2 expressed in insect cells and activated by PDK1 was purchased form Invitrogen (part number PV 3975). As substrate for the kinase reaction the biotinylated peptide biotin-Ahx-KKLNRTLSFAEPG (C-terminus in amide form) was used which can be purchased e.g. from the company Biosynthan GmbH (Berlin-Buch, Germany).
as §1, with “Akt2” for “Akt1”, “0.2” for “0.05”
as §2
as §3, with “TR-FRET” for “HTRF”

His-tagged human recombinant kinase full-length Akt1, sequence (P31749 whole entry): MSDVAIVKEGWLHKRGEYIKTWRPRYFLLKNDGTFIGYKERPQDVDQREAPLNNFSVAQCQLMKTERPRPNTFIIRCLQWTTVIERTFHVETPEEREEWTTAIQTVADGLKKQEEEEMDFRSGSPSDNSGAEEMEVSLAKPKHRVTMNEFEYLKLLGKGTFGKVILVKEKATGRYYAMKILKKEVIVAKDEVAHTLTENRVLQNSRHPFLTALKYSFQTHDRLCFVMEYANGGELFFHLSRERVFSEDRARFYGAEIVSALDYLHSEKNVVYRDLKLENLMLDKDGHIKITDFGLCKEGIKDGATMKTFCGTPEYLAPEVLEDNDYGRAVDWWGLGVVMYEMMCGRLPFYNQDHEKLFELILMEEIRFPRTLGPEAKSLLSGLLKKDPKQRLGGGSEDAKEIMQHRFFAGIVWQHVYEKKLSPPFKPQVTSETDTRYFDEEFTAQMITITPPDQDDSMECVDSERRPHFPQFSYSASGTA

As a reminder, the IC50 is the point on the concentration scale where inhibition reaches its midpoint. Turning to `CNc1c(-c2ccccc2)c(-c2ccc(CN3CC(c4n[nH]c(-c5ccccn5)n4)C3)cc2)nc2nc(-c3ccccn3)nn12` [Example 67.0], the values for the IC50 in test [1] and in test [2] were 29 nM and 145 nM, respectively.
As to `Fc1ccc(-c2cn3ccnc3nc2-c2ccc(CN3CCC(c4cnc5ccccc5n4)CC3)cc2)cc1` [Example 34.0, 2-(1-{4-[6-(4-fluorophenyl)-imidazo[1,2-a]pyrimidin-7-yl]-benzyl}-piperidine-4-yl)-quinoxaline], the IC50 amounted to 365 nM in test [1] and 2290 nM in test [2].
For `Fc1ccc(-c2cn3ccnc3nc2-c2ccc(CN3CCC(c4n[nH]c(-c5ccccn5)n4)CC3)cc2)cc1` [Example 52.1, 6-(4-fluorophenyl)-7-{4-[4-(5-pyridine-2-yl)-1H-[1,2,4]triazole-3-yl)-piperidine-1-ylmethyl)-phenyl}-imidazo[1,2-a]pyrimidine formiate] the same measures were 8 nM and 32 nM.
For `CNc1c(-c2ccccc2)c(-c2ccc(CN3CC(c4n[nH]c(-c5ccccn5)n4)C3)cc2)nc2nccn12` [Example 58.0, methyl-(6-phenyl-7-{4-{3-[5-(pyridine-2-yl)-1H-[1,2,4]triazole-3-yl)-azetidine-1-ylmethyl]-phenyl}-imidazo[1,2-a]pyrimidin-5-yl)-amine] the same measures were 30 nM and 476 nM.
For `Brc1cnc2nc(-c3ccc(CN4CC(c5n[nH]c(-c6ccccn6)n5)C4)cc3)c(-c3ccccc3)cn12` [Example 55.0, 3-bromo-6-phenyl-7-{4-{3-[5-(pyridine-2-yl)-1H-[1,2,4]triazole-3-yl)-azetidine-1-ylmethyl]-phenyl}-imidazo[1,2-a]pyrimidine] the same measures were 6 nM and 14 nM.
`COC(=O)c1cn2cc(-c3ccccc3)c(-c3ccc(CN4CC(c5n[nH]c(-c6cccc(C)n6)n5)C4)cc3)nc2n1` [Example 74.0, 7-(4-{3-[5-(6-methylpyridine-2-yl)-1H-[1,2,4]triazole-3-yl]-azetidine-1-ylmethyl}-phenyl)-6-phenyl-imidazo[1,2-a]pyrimidine-2-carboxylic acid methyl ester]: the IC50 in test [1] was 12 nM; in test [2], 14 nM.
With `CC(C)Nc1c(-c2ccccc2)c(-c2ccc(CN3CC(c4n[nH]c(-c5ccccn5)n4)C3)cc2)nc2nc(-c3ccccn3)nn12` [Example 68.0], the IC50 turned out to be 24 nM in test [1] and 88 nM in test [2].
In the same order, the values of `COc1nn2cc(-c3c(F)cccc3F)c(-c3ccc(CN4CC(c5n[nH]c(-c6cccc(C)n6)n5)C4)cc3)nc2c1CO` [Example 63.1] are 8 nM and 34 nM.
For `Fc1ccc(-c2cn3c(Cl)cnc3nc2-c2ccc(CN3CCC(c4n[nH]c(-c5ccccn5)n4)CC3)cc2)cc1` [Example 53.1, 3-chloro-6-(4-fluorophenyl)-7-{4-[4-(5-pyridine-2-yl-1H-[1,2,4]triazole-3-yl)-piperidine-1-ylmethyl]-phenyl}-imidazo[1,2-a]pyrimidine] the same measures were 25 nM and 33 nM.
On to `CNc1nc2nc(-c3ccc(CN4CC(c5n[nH]c(-c6ccccn6)n5)C4)cc3)c(-c3ccccc3)cn2n1` [Example 43.0, methyl-(6-phenyl-5-{4-[3-(5-pyridin-2-yl-1H-[1,2,4]triazol-3-yl)azetidin-1-ylmethyl]-phenyl}-[1,2,4]triazolo[1,5-a]pyrimidin-2-yl)-amine], for which, in test [1], the half-maximal inhibitory concentration (IC50) came to 63 nM.
Take `COC(=O)c1cnn2cc(-c3c(F)cccc3F)c(-c3ccc(CN4CC(c5n[nH]c(-c6cccc(C)n6)n5)C4)cc3)nc12` [Example 27.0, 6-(2,6-difluorophenyl)-5-(4-{3-[5-(6-methylpyridine-2-yl)-1H-[1,2,4]triazole-3-yl]-azetidine-1-ylmethyl}-phenyl)-pyrazolo[1,5-a]pyrimidine-3-carboxylic acid methyl ester]: the IC50 in test [1] is 12 nM; in test [2], 115 nM.
In the same order, the values of `Cc1nc2nc(-c3ccc(CN4CCC(c5n[nH]c(-c6cc(Cl)ccn6)n5)CC4)cc3)c(-c3ccc(F)cc3F)cn2n1` [Example 50.0, 5-(4-{4-[5-(4-chloropyridine-2-yl)-1H-[1,2,4]triazole-3-yl]-piperidine-1-ylmethyl}-phenyl) 6-(2,4-difluorophenyl)-2-methyl-[1,2,4]triazolo[1,5-a]pyrimidine] are 22 nM and 97 nM.
In the same order, the values of `COc1nn2cc(-c3c(F)cccc3F)c(-c3ccc(CN4CCC(c5n[nH]c(-c6cccc(C)n6)n5)CC4)cc3)nc2c1CO` [Example 63.2] are 18 nM and 108 nM.
On to `Cc1cccc(-c2nc(C3CCN(Cc4ccc(-c5nc6nccn6cc5-c5ccc(F)cc5)cc4)CC3)n[nH]2)n1` [Example 52.0, 6-(4-fluorophenyl)-7-(4-{4-[5-(6-methylpyridine-2-yl)-1H-[1,2,4]triazole-3-yl]-piperidine-1-ylmethyl}-phenyl)-imidazo[1,2-a]pyrimidine formiate], for which the IC50 in test [1] is 9 nM; in test [2] it was 17 nM.
In the same order, the values of `N#Cc1ccc2nc(C3CCN(Cc4ccc(-c5nc6nccn6cc5-c5ccccc5)cc4)CC3)[nH]c2c1` [Example 9.0, 2-{1-[4-(6-Phenyl-imidazo[1,2-a]pyrimidin-7-yl)-benzyl]-piperidin-4-yl}-3H-benzimidazole-5-carbonitrile] are 83 nM and 426 nM.
For `c1ccc(-c2cn3nc(C4CC4)nc3nc2-c2ccc(CN3CC(c4n[nH]c(-c5ccccn5)n4)C3)cc2)cc1` [Example 70.0] the same measures were 7 nM and 5 nM.
For `Cc1cccc(-c2nc(C3CCN(Cc4ccc(-c5nc6nc(C)nn6cc5-c5ccc(F)cc5F)cc4)CC3)n[nH]2)n1` [Example 50.1, 6-(2,4-difluorophenyl)-2-methyl-5-(4-{4-[5-(6-methylpyridine-2-yl)-1H-[1,2,4]triazole-3-yl]-piperidine-1-ylmethyl}-phenyl)-[1,2,4]triazolo[1,5-a]pyrimidine] the same measures were 62 nM and 108 nM.
As for `Nc1ncnc2c1cnn2C1CCN(Cc2ccc(-c3nc4ccnn4cc3-c3ccccc3)cc2)CC1` [Example 19.0, 1-{1-[4-(6-phenyl-pyrazolo[1,5-a]pyrimidin-5-yl)-benzyl]-piperidin-4-yl}-1H-pyrazolo[3,4-d]pyrimidin-4-ylamine], the half-maximal inhibitory concentration (IC50) in test [1] worked out at 25 nM; in test [2], 332 nM.
